These results are taken from ChEMBL document CHEMBL3244322, “5-O-Alkylated derivatives of 5-hydroxy-2'-deoxyuridine as potential antiviral agents. Anti-herpes activity of 5-propynyloxy-2'-deoxyuridine” (J Med Chem, 1978).

In brackets after ≈: the same amount, converted by molar mass. Bounds are passed on as bounds.

The experiment relates to Vaccinia virus. Kind of experiment: Antiviral activity against Vaccinia virus infected in human skin fibroblasts primed with interferon and superinduced with cyclohexamide and actinomycin D assessed as inhibition of virus-induced cytopathogenicity. The note with it: Orthopoxvirus vaccinia. In kind it is functional. Background: Damage to the host cells serves as the signal in cytopathic effect assays.
Turning to `O=c1[nH]c(=O)n([C@H]2C[C@H](O)[C@@H](CO)O2)cc1O`, the MIC came to 40 µM (≈ 9.77 µg/mL).
For `C#CCOc1cn([C@H]2C[C@H](O)[C@@H](CO)O2)c(=O)[nH]c1=O` the value was 140 µM (≈ 39.5 µg/mL); for `C=CCOc1cn([C@@H]2O[C@H](CO)[C@@H](O)[C@H]2O)c(=O)[nH]c1=O`, > 600 µM; for `C=CCOc1cn([C@H]2C[C@H](O)[C@@H](CO)O2)c(=O)[nH]c1=O`, 350 µM (≈ 99.5 µg/mL).
In the case of `O=c1[nH]c(=O)n([C@@H]2O[C@H](CO)[C@@H](O)[C@H]2O)cc1OCc1ccccc1`, the MIC was > 600 µM.
For `O=c1[nH]c(=O)n([C@H]2C[C@H](O)[C@@H](CO)O2)cc1OCc1ccccc1` the value was > 600 µM.
For `O=c1[nH]c(=O)n([C@@H]2O[C@H](CO)[C@@H](O)[C@H]2O)cc1OCc1ccc([N+](=O)[O-])cc1` the value was > 600 µM.
As for `O=c1[nH]c(=O)n([C@H]2C[C@H](O)[C@@H](CO)O2)cc1OCc1ccc([N+](=O)[O-])cc1`, the MIC was > 520 µM.
For the molecule `Cc1ccc(COc2cn([C@@H]3O[C@H](CO)[C@@H](O)[C@H]3O)c(=O)[nH]c2=O)cc1`, the MIC was > 600 µM.
The result for `NC(=O)COc1cn([C@@H]2O[C@H](CO)[C@@H](O)[C@H]2O)c(=O)[nH]c1=O` reads > 600 µM; that for `NC(=O)COc1cn([C@H]2C[C@H](O)[C@@H](CO)O2)c(=O)[nH]c1=O`, 130 µM (≈ 39.2 µg/mL).
Turning to `O=c1[nH]c(=O)n([C@H]2C[C@H](O)[C@@H](CO)O2)cc1I` [IDOXURIDINE], the MIC stood at 1.4 µM (≈ 0.496 µg/mL).
For `Nc1ncnc2c1ncn2[C@@H]1O[C@H](CO)[C@@H](O)[C@@H]1O` [VIDARABINE] the value was 26 µM (≈ 6.95 µg/mL).
